The structures appear in SMILES notation. Where a SMILES comes first, the peptide text is derived from it. The star is where a group is joined. Cbz = O=C(OCc1ccccc1)*; CF3 = FC(F)(F)*

As usually defined, the IC50 is the concentration needed to halve the response being measured. As usually defined, the Ki is the equilibrium dissociation constant of an inhibitor or competing ligand from its target.

A short description of assay [1]: Inhibition of recombinant Hepatitis A virus proteinase 3C using Ac-Leu-Ala-Ala-OH as a substrate expressed in Escherichia coli incubated for 15 mins by SDS-PAGE assay. Further details: species or system Hepatovirus A.
A short description of assay [2]: Inhibition of Severe acute respiratory syndrome coronavirus proteinase 3C using (Dabcyl-KTSAVLQSGFRKME-Edans peptide as a substrate assessed as inhibition constant by fluorescence based assay. Further details: species or system Severe acute respiratory syndrome-related coronavirus.
A short description of assay [3]: Inhibition of Severe acute respiratory syndrome coronavirus proteinase 3C using (Dabcyl-KTSAVLQSGFRKME-Edans peptide as a substrate by fluorescence based assay. On the set-up: species or system Severe acute respiratory syndrome-related coronavirus.
Assay [4] is described as follows: Inhibition of Severe acute respiratory syndrome coronavirus proteinase 3C using Abz-SVTLQSG-Tyr(NO2)R peptide as a substrate. On the set-up: species or system Severe acute respiratory syndrome-related coronavirus.
Assay [5] in a line: Inhibition of Severe acute respiratory syndrome coronavirus proteinase 3C using Dabcy-KTSAVLQSGFRKME-Edans peptide as a substrate. Further details: species or system Severe acute respiratory syndrome-related coronavirus.
Assay [6] is described as follows: Inhibition of Severe acute respiratory syndrome coronavirus proteinase 3C using Dabcy-KTSAVLQSGFRKME-Edans peptide as a substrate incubated for 10 mins by fluorescence based assay. Further details: species or system Severe acute respiratory syndrome-related coronavirus.
A short description of assay [7]: Inhibition of Severe acute respiratory syndrome coronavirus proteinase 3C by FRET assay. Further details: species or system Severe acute respiratory syndrome-related coronavirus.
Assay [8] in a line: Inhibition of Severe acute respiratory syndrome coronavirus proteinase 3C assessed as inhibition constant by spectrophotometry assay. Further details: species or system Severe acute respiratory syndrome-related coronavirus.
Assay [9] in a line: Inhibition of Severe acute respiratory syndrome coronavirus proteinase 3C using EDANS-Val-Asn-Ser-Thr-Leu-Gln-Ser-Gly-Leu-Arg-Lys-(Dabcyl)-Met substrate incubated for 1 hr by fluorescence based assay. On the set-up: species or system Severe acute respiratory syndrome-related coronavirus.

Turning to `CC(=O)N[C@@H](CC(C)C)C(=O)N[C@@H](C)C(=O)N[C@@H](C)C(=O)N[C@@H](C[C@@H]1CCNC1=O)C(=O)Cn1[nH]c(=O)c2c([N+](=O)[O-])cccc2c1=O`, the IC50 in [1] stood at 1600 nM.

For the compound `CC(=O)N[C@@H](CC(C)C)C(=O)N[C@@H](C)C(=O)N[C@@H](C)C(=O)N[C@@H](CCC(=O)N(C)C)C(=O)Cn1[nH]c(=O)c2ccccc2c1=O`, the half-maximal inhibitory concentration (IC50) in assay [1] was determined as 13000 nM. Take `CN(C)c1ccc(C(=O)N[C@@H](Cc2ccccc2)C(=O)Nc2ccc([N+](=O)[O-])cc2Cl)cc1`: the inhibition constant Ki in assay [2] turned out to be 30 nM. In assay [3], this compound returned a 50% inhibitory concentration (IC50) of 60 nM.

`CC(=O)N[C@H](C(=O)N[C@H](C(=O)N[C@@H](CC(C)C)C(=O)N[C@@H](C[C@@H]1CCNC1=O)C(=O)Cn1[nH]c(=O)c2c([N+](=O)[O-])cccc2c1=O)C(C)OCc1ccccc1)C(C)C` (stereo not given in full) gave an IC50 in [4] of 600 nM.

Regarding `O=C[C@H](C[C@@H]1CCNC1=O)NC(=O)[C@H](Cc1ccccc1)NC(=O)/C=C/c1ccc(Cl)cc1F`, it took 200 nM to reach half-maximal inhibition in [5] (IC50).

For the compound `O=C(/C=C/c1ccccc1)Nc1ccccc1SC(=O)/C=C/c1ccccc1`, the half-inhibitory concentration (IC50) in [6] and in [7] was 1060 nM throughout. For the compound `CC(C)C[C@H](NC(=O)[C@@H](NC(=O)OCc1ccccc1)C(C)C)C(=O)N[C@@H](CCC(=O)O)C(=O)C(F)(F)F` (Cbz-Val-Leu-Glu-CF3), in assay [8], the inhibition constant (Ki) was found to be 116000 nM. Consider `CN(C)CCCSc1ccccc1NC(=O)/C=C/c1ccccc1` [CINANSERIN], for which, in [9], the IC50 turned out to be 19000 nM.
